The structures appear in SMILES notation.

This is an account of results in patent US11351168B1 (Celgene CAR LLC, priority 2008, dated 2022).

The test system of one experiment is BTK signaling in Ramos cells. In words: BTK Ramos cellular assay (phosphorylation of BTK substrate PLCγ2). Type of experiment: cell-based, human. The following applies: 1 hour compound, anti-IgM stimulation, read-out: BTK Inhibition (Ramos cellular). On the procedure: Compounds I-2, I-4, and I-7 were assayed in Ramos human Burkitt lymphoma cells. Ramos cells were grown in suspension in T225 flasks, spun down, resuspended in 50 ml serum-free media and incubated for 1 hour. Compound was added to Ramos cells in serum free media to a final concentration of 1, 0.1, 0.01, or 0.001 μM. Ramos cells were incubated with compound for 1 hour, washed again and resuspended in 100 ul serum-free media. Cells were then stimulated with 1 μg of goat F(ab′)2 Anti-Human IgM and incubated on ice for 10 minutes to activate B cell receptor signaling pathways. After 10 minutes, the cells were washed once with PBS and then lysed on ice with Invitrogen Cell Extraction buffer. 16 μg total protein from lysates were loaded on gel and blots were probed for phosphorylation of the BTK substrate PLCγ2.
`C=CC(=O)N1CCOc2ccc(Nc3nc(Nc4ccc5cn[nH]c5c4)ncc3C(C)=O)cc21` [Compound I-153, 1-{6-[5-Acetyl-2-(1H-indazol-6-ylamino)-pyrimidin-4-ylamino]-2,3-dihydro-benzo[1,4]oxazin-4-yl}-propenone]: the IC50 was under 10 nM.

The experiment is the same for the next values; noted with them: Homo sapiens, 1 hour compound, anti-IgM stimulation, read-out: BTK Inhibition (Ramos cellular).
As for `C=CC(=O)Nc1cccc(Oc2nc(Nc3cccc(OC)c3)ncc2C(=O)NC2CC2)c1` [Compound I-177, 4-(3-acrylamidophenoxy)-2-(3-methoxyphenylamino)-pyrimidine-5-carboxylic acid cyclopropylamide], the IC50 is 100 to 1000 nM.

As for `C=CC(=O)Nc1cccc(Nc2nc(Nc3ccc4c(c3)N(C)CCO4)ncc2F)c1` [Compound I-126, N-(3-(2-(4-methyl-2,3-dihydrobenzo[1,4]oxazin-6-yl)amino-5-fluoropyrimidin-4-ylamino)phenyl)acrylamide], the IC50 lay in the range of 10 to 100 nM.

Regarding `C=CC(=O)Nc1cccc(Nc2nc(Nc3ccc(OCCOC)nc3)ncc2F)c1` [Compound I-103, N-(3-(5-fluoro-2-(6-(2-methoxyethoxy)pyridine-3-ylamino)pyrimidin-4-ylamino)phenyl)acrylamide], the IC50 was under 10 nM. As to `C=CC(=O)Nc1cccc(Nc2nc(Nc3ccc(OC)nc3)ncc2C#N)c1` [Compound I-173, N-(3-(5-cyano-2-(6-methoxypyridin-3-ylamino)pyrimidin-4-ylamino)phenyl)acrylamide], the IC50 was under 10 nM.

For the molecule `C=CC(=O)N1CCC[C@@H](Oc2nc(Nc3cccc(OC)c3)ncc2F)C1` [Compound I-190, (R)-1-(3-(5-fluoro-2-(3-methoxyphenylamino)pyrimidin-4-yloxy)piperidin-1-yl)prop-2-en-1-one], the IC50 lay in the range of 10 to 100 nM. The same measure, in the same setting: next, `C=CC(=O)Nc1cccc(Nc2nc(Nc3ccc(OC)c(OC)c3)ncc2F)c1` [Compound I-134, 4-(3acrylamidophenylamino)-5-fluoro-2-(3,4-dimethoxyphenylamino)-pyrimidine]: 10 to 100 nM. For the molecule `C=CC(=O)N1CCOc2ccc(Nc3nc(Nc4ccc(N(C)C(=O)C(F)(F)F)nc4)ncc3C(C)=O)cc21` [Compound I-142, N-(5-(5-acetyl-4-(4-acryloyl-3,4-dihydro-2H-benzo[b][1,4]oxazin-6-ylamino)pyrimidin-2-ylamino)pyridin-2-yl)-2,2,2-trifluoro-N-methylacetamide], the IC50 was 10 to 100 nM. Regarding `C=CC(=O)N1CCC[C@@H](Nc2nc(Nc3ccc(OC)nc3)ncc2F)C1` [Compound I-202, (R)-1-(3-(5-fluoro-2-(6-methoxypyridin-3-ylamino)pyrimidin-4-ylamino)piperidin-1-yl)prop-2-en-1-one], the IC50 was in the range of 100 to 1000 nM. On to `C=CC(=O)Nc1cccc(Oc2nc(Nc3cccc(OC)c3)ncc2C(N)=O)c1` [Compound I-178, 4-(3-acrylamidophenoxy)-2-(3-methoxyphenylamino)pyrimidine-5-carboxylic acid amide], for which the IC50 fell in the range of 10 to 100 nM. With `C=CC(=O)Nc1ccc(C)c(Nc2ncc(C)c(Nc3cccc(C)c3)n2)c1` [Compound I-8, N-(4-methyl-3-(5-methyl-4-(m-tolylamino)pyrimidin-2-ylamino)phenyl)acrylamide], the IC50 was in the range of 100 to 1000 nM. The same measure, in the same setting: next, `C=CC(=O)Nc1cccc(Oc2nc(Nc3ccc(OCCOC)cc3)ncc2C2CC2)c1` [Compound I-131, N-(3-(5-cyclopropyl-2-(4-(2-methoxyethoxy)phenylamino)pyrimidin-4-yloxy)phenyl)acrylamide]: under 10 nM. On the same count and under the same terms, next, `C=CC(=O)Nc1cccc(Nc2nc(Nc3cccc(S(N)(=O)=O)c3)ncc2C)c1` [Compound I-33, N-(3-(5-methyl-2-(3-sulfamoylphenylamino)pyrimidin-4-ylamino)phenyl)acrylamide]: under 10 nM.

Take `C=CC(=O)N1CCOc2ccc(Nc3nc(Nc4ccc(OC)nc4)ncc3F)cc21` [Compound I-194, 1-(6-(5-fluoro-2-(6-methoxypyridin-3-ylamino)pyrimidin-4-ylamino)-2H-benzo[b][1,4]oxazin-4(3H)-yl)prop-2-en-1-one]: the IC50 was under 10 nM. On the same count and under the same terms, next, `C=CC(=O)Nc1cccc(Nc2nc(Nc3cccc(OCCCNC(=O)OC(C)(C)C)c3)ncc2C)c1` [Compound I-45, tert-butyl 3-(3-(4-(3-acrylamidophenylamino)-5-methylpyrimidin-2-ylamino)phenoxy)propylcarbamate]: under 10 nM; `COc1ccc(Nc2ncc(F)c(Nc3cccc(NC(=O)/C=C/CN(C)C)c3)n2)cn1` [Compound I-125, (E)-4-(dimethylamino)-N-(3-(5-fluoro-2-(6-methoxypyridin-3-ylamino)pyrimidin-4-ylamino)phenyl)but-2-enamide]: 10 to 100 nM; `C=CC(=O)Nc1cccc(Nc2nc(Nc3ccc(OCCOC)cc3)ncc2C2CC2)c1` [Compound I-139, N-(3-(5-cyclopropyl-2-(4-(2-methoxyethoxy)phenylamino)pyrimidin-4-ylamino)phenyl)acrylamide]: 10 to 100 nM.

`C=CC(=O)N1CCc2ccc(Nc3nc(Nc4ccc(OC)nc4)ncc3F)cc21` [Compound I-166, 1-(6-(5-fluoro-2-(6-methoxypyridin-3-ylamino)pyrimidin-4-ylamino)indolin-1-yl)prop-2-en-1-one]: the IC50 was 10 to 100 nM. Still for that read-out and setting: to `C=CC(=O)Nc1cccc(Nc2nc(Nc3ccc(OCC(C)(C)O)c(F)c3)ncc2F)c1` [Compound I-315, N-(3-(5-fluoro-2-(3-fluoro-4-(2-hydroxy-2-methylpropoxy)phenylamino)pyrimidin-4-ylamino)phenyl)acrylamide] belongs under 10 nM; to `C=CC(=O)N1CCC[C@@H](Nc2nc(Nc3cccc(Cl)c3)ncc2F)C1` [Compound I-147, (R)-1-(3-(2-(3-chlorophenylamino)-5-fluoropyrimidin-4-ylamino)piperidin-1-yl)prop-2-en-1-one], 10 to 100 nM. Still for that read-out and setting: to `C=CC(=O)Nc1cc(Nc2nc(Nc3ccc(OCCOC)cc3)ncc2F)ccc1F` [Compound I-87, N-(2-fluoro-5-(5-fluoro-2-(4-(2-methoxyethoxy)phenylamino)pyrimidin-4-ylamino)phenyl)acrylamide] belongs under 10 nM. In the case of `C=CC(=O)Nc1cccc(Nc2nc(Nc3cccc(OC)c3)ncc2C(N)=O)c1` [Compound I-210, 4-(3-acrylamidophenylamino)-2-(3-methoxyphenylamino)pyrimidine-5-carboxamide], the IC50 is under 10 nM.

For the molecule `C=CC(=O)Nc1cccc(Oc2nc(Nc3ccc(OC)nc3)ncc2C(C)=O)c1` [Compound I-188, N-{3-[5-Acetyl-2-(6-methoxy-pyridin-3-ylamino)-pyrimidin-4-yloxy]-phenyl}-acrylamide], the IC50 was under 10 nM. Still for that read-out and setting: next, `C=CC(=O)N1CCOc2ccc(Nc3nc(Nc4ccc(N5CCCC5=O)cc4)ncc3C(C)=O)cc21` [Compound I-152, 1-{4-[5-Acetyl-4-(4-acryloyl-3,4-dihydro-2H-benzo[1,4]oxazin-6-ylamino)-pyrimidin-2-ylamino]-phenyl}-pyrrolidin-2-one]: 10 to 100 nM; `C=CC(=O)Nc1cccc(Oc2nc(Nc3ccc(OC)nc3)ncc2F)c1` [Compound I-217]: under 10 nM; `C=CC(=O)Nc1cccc(Nc2nc(Nc3cccc(OCCCN4CCOCC4)c3)ncc2F)c1` [Compound I-208, N-(3-(5-fluoro-2-(3-(3-morpholinopropoxy)phenylamino)pyrimidin-4-ylamino)phenyl)acrylamide]: 10 to 100 nM. On the same count and under the same terms, to `C=CC(=O)Nc1cccc(Oc2nc(Nc3ccc(OC)nc3)ncc2C(=O)Nc2ccccc2)c1` [Compound I-159, 4-(3-acrylamidophenoxy)-2-(6-methoxypyridin-3-ylamino)-pyrimidine-5-carboxylic acid phenylamide] belongs 100 to 1000 nM.

`C=CC(=O)Nc1cccc(Nc2ncc(F)c(Nc3cccc(C)c3)n2)c1` [Compound I-3, N-(3-(5-fluoro-4-(m-tolylamino)pyrimidin-2-ylamino)phenyl) acrylamide]: the IC50 is 10 to 100 nM.

With `C=CC(=O)Nc1cc(Nc2nc(Nc3ccc(OC(C)C)nc3)ncc2F)ccc1Cl` [Compound I-107, N-(2-chloro-5-(5-fluoro-2-(6-isopropoxypyridin-3-ylamino)pyrimidin-4-ylamino)phenyl)acrylamide], the IC50 was in the range of 10 to 100 nM. For the molecule `C=CC(=O)Nc1cccc(Nc2nc(Nc3cccc(OCCCS(C)(=O)=O)c3)ncc2F)c1` [Compound I-138, 4-(3-acrylamidophenylamino)-5-fluoro-2-(3-(3-(methylsulfonyl)propoxy)phenylamino)-pyrimidine], the IC50 was under 10 nM. Regarding `C=CC(=O)Nc1cccc(Nc2nc(Nc3ccc4c(c3)NCCO4)ncc2F)c1` [Compound I-174], the IC50 was under 10 nM. Regarding `C=CC(=O)Nc1cccc(Nc2nc(Nc3ccccc3)ncc2C#N)c1` [Compound I-157, N-(3-(5-cyano-2-(phenylamino)pyrimidin-4-ylamino)phenyl)acrylamide], the IC50 was under 10 nM. Same read-out and setting: next, `C=CC(=O)N1Cc2ccc(Nc3nc(Nc4ccc(OC)nc4)ncc3F)cc2C1` [Compound I-165, 1-(5-(5-fluoro-2-(6-methoxypyridin-3-ylamino)pyrimidin-4-ylamino)isoindolin-2-yl)prop-2-en-1-one]: 10 to 100 nM; `C=CC(=O)Nc1cccc(Nc2nc(Nc3ccc(OCCCNC(=O)OC(C)(C)C)cc3)ncc2F)c1` [Compound I-198, tert-butyl 3-(4-(4-(3-acrylamidophenylamino)-5-fluoropyrimidin-2-ylamino)phenoxy)propylcarbamate]: under 10 nM; `C=CC(=O)N1CCOc2ccc(Nc3nc(Nc4ccc(OCCO)nc4)ncc3C(C)=O)cc21` [Compound I-128, 1-(6-{5-Acetyl-2-[6-(2-hydroxy-ethoxy)-pyridin-3-ylamino]-pyrimidin-4-ylamino}-2,3-dihydro-benzo[1,4]oxazin-4-yl)-propenone]: 10 to 100 nM.
